This is an account of results in publication PMC12811658, “Design, Synthesis, and Structural Evolution of Pseudo‐Natural Product IDO1 Inhibitors and Degraders” (Angewandte Chemie (International Ed. in English), 2025).

As a reminder, the IC50 is the concentration at which inhibition is half-maximal.

Molecules are shown by their SMILES.

The test system of this assay is Kyn levels in BxPC3 cells (kynurenine generated by IDO1). The assay is described as follows: Cellular Kyn assay (automated Kyn screening assay). The format is cell-based. The note with it: Homo sapiens, BXPC-3, 48 h, IFN-γ, L-Trp and compounds 48 h, mean ± SD, read-out: IC50 (Kyn assay), reduction of kynurenine levels.
For `Cc1cccc(S(=O)(=O)N2C[C@H]3C[C@H]4C[C@H](C4(C)C)[C@@]3(COC(=O)Nc3ccc(I)cc3)C2)c1` [compound 67, ((3aS,4R,6R,7aS)-5,5-dimethyl-2-(m-tolylsulfonyl)octahydro-3aH-4,6-methanoisoindol-3a-yl)methyl (4-iodophenyl)carbamate], the IC50 amounted to 1100 ± 500 nM.

With `Cc1ccc(S(=O)(=O)N2C[C@H]3C[C@H]4C[C@H](C4(C)C)[C@@]3(COC(=O)Nc3ccc(I)cc3)C2)cc1` [compound 68, ((3aS,4R,6R,7aS)-5,5-dimethyl-2-tosyloctahydro-3aH-4,6-methanoisoindol-3a-yl)methyl (4-iodophenyl)carbamate], the IC50 came to 720 ± 270 nM.

With `CC(C)c1ccc(S(=O)(=O)N2C[C@H]3C[C@H]4C[C@H](C4(C)C)[C@@]3(COC(=O)Nc3ccc(I)cc3)C2)cc1` [compound 69, ((3aS,4R,6R,7aS)-2-((4-isopropylphenyl)sulfonyl)-5,5-dimethyloctahydro-3aH-4,6-methanoisoindol-3a-yl)methyl (4-iodophenyl)carbamate], the IC50 worked out at 140 ± 20 nM.

On to `CC1(C)[C@H]2C[C@@H]3CN(S(=O)(=O)c4ccc(-c5ccccc5)cc4)C[C@]3(COC(=O)Nc3ccc(I)cc3)[C@@H]1C2` [compound 70, ((3aS,4R,6R,7aS)-2-([1,1'-biphenyl]-4-ylsulfonyl)-5,5-dimethyloctahydro-3aH-4,6-methanoisoindol-3a-yl)methyl (4-iodophenyl)carbamate], for which the IC50 worked out at 340 ± 170 nM.

For the molecule `CC1(C)[C@H]2C[C@@H]3CN(S(=O)(=O)c4ccc(C5CCCCC5)cc4)C[C@]3(COC(=O)Nc3ccc(I)cc3)[C@@H]1C2` [compound 71, ((3aS,4R,6R,7aS)-2-((4-cyclohexylphenyl)sulfonyl)-5,5-dimethyloctahydro-3aH-4,6-methanoisoindol-3a-yl)methyl (4-iodophenyl)carbamate], the IC50 worked out at 1100 ± 300 nM.

For `CC1(C)CCC(C)(C)c2cc(S(=O)(=O)N3C[C@H]4C[C@H]5C[C@H](C5(C)C)[C@@]4(COC(=O)Nc4ccc(I)cc4)C3)ccc21` [compound 73, ((3aS,4R,6R,7aS)-5,5-dimethyl-2-((5,5,8,8-tetramethyl-5,6,7,8-tetrahydronaphthalen-2-yl)sulfonyl)octahydro-3aH-4,6-methanoisoindol-3a-yl)methyl (4-iodophenyl)carbamate], the IC50 was 450 ± 390 nM.

On to `CC(C)(C)Cc1ccc(S(=O)(=O)N2C[C@H]3C[C@H]4C[C@H](C4(C)C)[C@@]3(COC(=O)Nc3ccc(I)cc3)C2)cc1` [compound 74, ((3aS,4R,6R,7aS)-5,5-dimethyl-2-((4-neopentylphenyl)sulfonyl)octahydro-3aH-4,6-methanoisoindol-3a-yl)methyl (4-iodophenyl)carbamate], for which the IC50 was determined as 230 ± 60 nM.

In the case of `CCC(C)(C)c1ccc(S(=O)(=O)N2C[C@H]3C[C@H]4C[C@H](C4(C)C)[C@@]3(COC(=O)Nc3ccc(I)cc3)C2)cc1` [compound 75, ((3aS,4R,6R,7aS)-5,5-dimethyl-2-((4-(tert-pentyl)phenyl)sulfonyl)octahydro-3aH-4,6-methanoisoindol-3a-yl)methyl (4-iodophenyl)carbamate], the IC50 is 190 ± 70 nM.

Take `CC(C)(C)c1ccc(-c2ccc(S(=O)(=O)N3C[C@H]4C[C@H]5C[C@H](C5(C)C)[C@@]4(COC(=O)Nc4ccc(I)cc4)C3)cc2)cc1` [compound 76, ((3aS,4R,6R,7aS)-2-((4'-(tert-butyl)-[1,1'-biphenyl]-4-yl)sulfonyl)-5,5-dimethyloctahydro-3aH-4,6-methanoisoindol-3a-yl)methyl (4-iodophenyl)carbamate]: the IC50 is > 10000 nM.

Regarding `CC1(C)[C@H]2C[C@@H]3CN(S(=O)(=O)c4ccc([Si](C)(C)C)cc4)C[C@]3(COC(=O)Nc3ccc(I)cc3)[C@@H]1C2` [compound 77, ((3aS,4R,6R,7aS)-5,5-dimethyl-2-((4-(trimethylsilyl)phenyl)sulfonyl)octahydro-3aH-4,6-methanoisoindol-3a-yl)methyl (4-iodophenyl)carbamate], the IC50 was determined as 260 ± 90 nM.
